Measured values taken from patent US8404708B2, “Dual NK1/NK3 receptor antagonists” (Hoffmann-La Roche Inc., priority 2004, dated 2013).
Read-outs that look alike come from different tables or passages of the source.

Key:
[1] = phase II trial, cited from earlier work
[2] = target: T1, Recombinant human NK3 (hNK3) receptor (Homo sapiens, UniProt P29371); test: NK3 receptor binding, [3H]SR142801 displacement, membrane preparations
T1 construct: expressed in transfected cells
T1 sequence (P29371 1-465): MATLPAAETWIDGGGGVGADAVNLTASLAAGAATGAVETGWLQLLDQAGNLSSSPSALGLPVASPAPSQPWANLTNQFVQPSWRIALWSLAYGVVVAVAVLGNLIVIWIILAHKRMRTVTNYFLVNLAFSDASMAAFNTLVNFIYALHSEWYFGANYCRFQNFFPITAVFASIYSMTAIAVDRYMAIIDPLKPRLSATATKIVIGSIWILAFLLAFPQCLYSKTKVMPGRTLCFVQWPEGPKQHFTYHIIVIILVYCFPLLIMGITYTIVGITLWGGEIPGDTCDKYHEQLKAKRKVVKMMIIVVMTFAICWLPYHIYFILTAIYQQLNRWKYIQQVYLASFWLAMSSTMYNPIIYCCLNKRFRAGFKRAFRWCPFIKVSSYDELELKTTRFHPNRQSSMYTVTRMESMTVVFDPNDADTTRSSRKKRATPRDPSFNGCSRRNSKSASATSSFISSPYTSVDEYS
Method in brief: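 Incubation ran 90 min at room temperature in 50 mM Tris-HCl pH 7.4 with 0.1% BSA, 4 mM MnCl2 and 1 μM phosphoramidon, using about 2.5 μg hNK3 membrane protein per well. Nonspecific binding was defined with 10 μM SB222200, and bound radioactivity was collected on PEI-soaked GF/C filters for scintillation counting.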

human NK1 receptor = human NK1 receptor (Homo sapiens, UniProt P25103); test: NK1 receptor binding, [3H]substance P displacement, CHO cell membranes
Chain of human NK1 receptor (P25103 whole entry): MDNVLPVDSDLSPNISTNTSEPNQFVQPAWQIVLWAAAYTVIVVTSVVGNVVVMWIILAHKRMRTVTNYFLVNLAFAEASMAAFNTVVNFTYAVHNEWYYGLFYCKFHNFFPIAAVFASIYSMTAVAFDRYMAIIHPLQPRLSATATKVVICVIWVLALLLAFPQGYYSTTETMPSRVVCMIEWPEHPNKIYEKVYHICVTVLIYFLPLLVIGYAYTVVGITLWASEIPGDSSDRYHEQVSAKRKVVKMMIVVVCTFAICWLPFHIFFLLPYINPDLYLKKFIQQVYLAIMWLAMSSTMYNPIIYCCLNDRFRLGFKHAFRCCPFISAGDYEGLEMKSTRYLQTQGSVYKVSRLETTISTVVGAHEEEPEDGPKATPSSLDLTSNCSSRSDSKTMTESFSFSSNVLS

[3] = second value of the cell pKi NK1/NK3, hNK3 receptor, [3H]SR142801
[4] = first value of the cell pKi NK1/NK3, human NK1 receptor, [3H]substance P

Row | Structure (SMILES) | Ki (human NK1 receptor; [4]) | Ki [2, 3] | other results
1 | CC(=O)N(C)C1(c2ccccc2)CCN(CCC[C@]2(c3ccc(Cl)c(Cl)c3)CCCN(C(=O)c3ccccc3)C2)CC1 [SR 142,801, Osanetant] |  |  | activity on positive symptoms of schizophrenia ([1]; altered behavior, delusion, hallucinations, extreme emotions, excited motor activity, incoherent speech): active; activity in the treatment of negative symptoms of schizophrenia ([1]; depression, anhedonia, social isolation, memory and attention deficits): inactive
2 | CN(C(=O)C(C)(C)c1cc(C(F)(F)F)cc(C(F)(F)F)c1)c1cnc(NCCO)cc1-c1ccccc1Cl [Example 67, 2-(3,5-Bis-trifluoromethyl-phenyl)-N-[4-(2-chloro-phenyl)-6-(2-hydroxy-ethylamino)-pyridin-3-yl]-N-methyl-isobutyramide] |  |  | pKi NK3 [2, 3]: 7.94; melting point: 117 to 118 °C
3 | Cc1ccccc1-c1cc(N2CC[C@@H](O)[C@H](O)C2)ncc1N(C)C(=O)C(C)(C)c1cc(C(F)(F)F)cc(C(F)(F)F)c1 (racemic) [Example 186, (3RS,4RS)-2-(3,5-Bis-trifluoromethyl-phenyl)-N-(3,4-dihydroxy-4′-o-tolyl-3,4,5,6-tetrahydro-2H-[1,2′]bipyridinyl-5′-yl)-N-methyl-isobutyramide] | 1.41 nM | 12.3 nM | 
4 | CCCN(CCO)c1cc(-c2ccccc2Cl)c(N(C)C(=O)C(C)(C)c2cc(C(F)(F)F)cc(C(F)(F)F)c2)cn1 [Example 56, 2-(3,5-Bis-trifluoromethyl-phenyl)-N-{4-(2-chloro-phenyl)-6-[(2-hydroxy-ethyl)-propyl-amino]-pyridin-3-yl}-N-methyl-isobutyramide] | 4.57 nM | 5.25 nM | 
5 | CN(C(=O)C(C)(C)c1cc(C(F)(F)F)cc(C(F)(F)F)c1)c1cnc(N2CC[C@@H](O)C2)cc1-c1ccccc1Cl [Example 47, (R)-2-(3,5-Bis-trifluoromethyl-phenyl)-N-[4-(2-chloro-phenyl)-6-(3-hydroxy-pyrrolidin-1-yl)-pyridin-3-yl]-N-methyl-isobutyramide] | 1.95 nM | 6.31 nM | 
6 | COc1cc(Cl)cc(C(C)(C)C(=O)N(C)c2cnc(N3CCC[C@H]3CO)cc2-c2ccccc2Cl)c1 [Example 7, (S)-2-(3-Chloro-5-methoxy-phenyl)-N-[4-(2-chloro-phenyl)-6-(2-hydroxymethyl-pyrrolidin-1-yl)-pyridin-3-yl]-N-methyl-isobutyramide] | 4.79 nM | 1.78 nM | 
7 | Cc1ccccc1-c1cc(N2CCC(CO)CC2)ncc1N(C)C(=O)C(C)(C)c1cc(C(F)(F)F)cc(C(F)(F)F)c1 [Example 172, 2-(3,5-Bis-trifluoromethyl-phenyl)-N-(4-hydroxymethyl-4′-o-tolyl-3,4,5,6-tetrahydro-2H-[1,2′]bipyridinyl-5′-yl)-N-methyl-isobutyramide] | 7.08 nM | 12.9 nM | 
8 | Cc1ccccc1-c1cc(N2CC[C@@H](O)[C@@H](CO)C2)ncc1N(C)C(=O)C(C)(C)c1cc(C(F)(F)F)cc(C(F)(F)F)c1 (racemic) [Example 192, (3RS,4RS)-2-(3,5-Bis-trifluoromethyl-phenyl)-N-(4-hydroxy-3-hydroxymethyl-4′-o-tolyl-3,4,5,6-tetrahydro-2H-[1,2′]bipyridinyl-5′-yl)-N-methyl-isobutyramide] | 3.02 nM | 34.7 nM | 
9 | CN(C(=O)C(C)(C)c1cc(C(F)(F)F)cc(C(F)(F)F)c1)c1cnc(N2C[C@H](O)C[C@H]2CO)cc1-c1ccccc1CO [Example 225, (2S,4R)-2-(3,5-Bis-trifluoromethyl-phenyl)-N-[6-(4-hydroxy-2-hydroxymethyl-pyrrolidin-1-yl)-4-(2-hydroxymethyl-phenyl)-pyridin-3-yl]-N-methyl-isobutyramide] |  |  | Ki (human NK1 receptor; first value of the cell NK1/NK3, read-out: pKi NK1 (converted)): 1.66 nM; Ki ([2]; second value of the cell NK1/NK3, read-out: pKi NK3 (converted)): 2.57 nM
